Drawing on ChEMBL document CHEMBL5725536, “Multiple kinase pathway inhibitors” (2017), this text covers IC50 for two compounds.

Assay [1] deals with Tyrosine-protein kinase Lyn (Homo sapiens, UniProt P07948). Description: (§1) Kinase Assays: A concentration of a drug that reduces the observed activity of an enzyme by 50%. An IC50 is not a true affinity constant and the specific value determined can vary depending on the particular assay used. Nonetheless the rank order of IC50 for a set of compounds will typically be similar from one assay to another. (The true affinity constant for an inhibitor binding to an enzyme, Ki, can of course also be used for the same purposes as described herein for IC50). With respect to the kinases that are targeted by the compounds disclosed herein, kinase activity can be assayed, without limitation, as consumption of ATP or as incorporation of phosphate into a substrate. For example, the assay used in Example 76 assesses consumption of ATP based on luminescent detection of ADP. As an alternate example, the assay used in Example 78 assesses incorporation of phosphate based on the radiologic detection of 33P-labeled artificial substrates. Myriad other kinase assays are known in the art many of which are commercially available either as a kit or a service and one of skill in the art will recognize their particular usefulness for generating IC50 data.
Chain of Tyrosine-protein kinase Lyn (P07948 whole entry): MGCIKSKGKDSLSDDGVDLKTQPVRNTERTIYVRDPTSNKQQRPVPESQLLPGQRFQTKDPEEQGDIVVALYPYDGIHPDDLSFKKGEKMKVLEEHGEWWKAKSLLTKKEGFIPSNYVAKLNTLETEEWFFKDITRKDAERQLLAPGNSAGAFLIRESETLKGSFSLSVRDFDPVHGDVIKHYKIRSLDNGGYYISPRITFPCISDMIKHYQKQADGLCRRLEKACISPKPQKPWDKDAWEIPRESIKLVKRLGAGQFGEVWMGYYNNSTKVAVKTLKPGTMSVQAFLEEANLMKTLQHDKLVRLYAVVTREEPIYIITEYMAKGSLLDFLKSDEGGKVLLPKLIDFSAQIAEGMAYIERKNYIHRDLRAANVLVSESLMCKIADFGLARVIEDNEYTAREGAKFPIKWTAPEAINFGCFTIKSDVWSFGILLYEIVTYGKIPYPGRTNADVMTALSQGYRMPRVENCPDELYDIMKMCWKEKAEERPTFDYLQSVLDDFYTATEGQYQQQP

The target of assay [2] is Proto-oncogene tyrosine-protein kinase Src (Homo sapiens, UniProt P12931). The description is as §1.
Chain of Proto-oncogene tyrosine-protein kinase Src (P12931 2-536 limits assumed): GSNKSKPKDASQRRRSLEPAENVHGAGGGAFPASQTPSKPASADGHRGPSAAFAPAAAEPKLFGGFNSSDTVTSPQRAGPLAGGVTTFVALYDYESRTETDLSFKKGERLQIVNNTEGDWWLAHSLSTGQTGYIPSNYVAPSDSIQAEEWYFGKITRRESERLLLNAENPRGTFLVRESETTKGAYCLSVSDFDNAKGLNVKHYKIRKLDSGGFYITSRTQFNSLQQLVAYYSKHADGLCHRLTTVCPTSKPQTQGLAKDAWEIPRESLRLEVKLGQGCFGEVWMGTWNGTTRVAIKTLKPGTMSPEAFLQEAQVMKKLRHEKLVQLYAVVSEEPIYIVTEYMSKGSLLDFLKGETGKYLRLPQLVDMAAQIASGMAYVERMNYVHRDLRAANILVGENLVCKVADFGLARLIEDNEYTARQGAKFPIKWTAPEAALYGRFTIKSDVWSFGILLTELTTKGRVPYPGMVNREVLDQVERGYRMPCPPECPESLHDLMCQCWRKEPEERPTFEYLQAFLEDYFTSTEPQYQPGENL

pIC50: −log10 of the molar value.

In the case of `CCN(CC)CCOc1ccc(Nc2cc3c(cn2)cc(C(C)C)c(=O)n3C)nc1`, the pIC50 in assay [1] was below 5.30.

Consider `CC(C)n1c(=O)c(-c2c(F)cccc2F)cc2cnc(Nc3ccc(F)cn3)cc21`, for which the pIC50 in assay [1] and in assay [2] was below 5.30 each time.
